Results as given in patent US4235905A, “1H-Pyrimido[4,5-c]-1,2-diazepines” (Burroughs Wellcome Co., priority 1977, dated 1980).
Read-outs that look alike come from different tables or passages of the source.

Key:
[1] = tested on: Eimeria tenella (Weybridge); assay: Anti-coccidial activity in vitro, chick embryo liver cell cultures with Eimeria tenella sporozites; type: cell-based; conditions: for minimal effective concentration: Eimeria tenella, read-out: minimum active anti-coccidial amount; for Activity, Alone: compound alone; for Activity, With DV/SQX: with sulphaquinoxaline (0.01 μg/ml) and diaveridine (0.031 μg/ml)
Description: The anti-coccidial activity of compounds of formula (III) alone and in combination with a mixture of diaveridine (DV) and sulphaquinoxaline (SQX) in vitro was tested according to the following procedure.
Using standard test procedures employing primary explant cultures of chick embryo liver cells and a suspension of Eimeria tenella (Weybridge) sporozites the activity of the compounds was determined at various concentrations. In the above test, each test compound was used either alone or in combination with sulphaquinoxaline (0.01 μg/ml) and diaveridine (0.031 μg/ml). It should be noted that the minimum active anti-coccidial amounts of sulphaquinoxaline and diaveridine are 0.024 μg/ml and 0.098 μg/ml respectively.
The following results were obtained wherein activity is expressed as follows: […]

Staphylococcus aureus = assay: Antibacterial activity of trimethoprim and sulphamethoxazole alone and in combination with compounds of formula (II) (activity index); type: cell-based; conditions: compound of formula (II) at 50 μg/ml, viable counts after 24 hours incubation of 10^6 organisms per ml; for activity index, SMX: in combination with sulphamethoxazole (SMX); for activity index, TMP: in combination with trimethoprim (TMP)
Description: The antibacterial activity against Staphylococcus aureus of trimethoprim (TMP) and sulphamethoxazole (SMX) alone and in combination with compounds of formula (II) were compared.
The results shown in the table are expressed as an activity index which is: [formula] the effect of the compounds being measured by viable counts after 24 hours incubation of 10^6 organisms per ml.
In this test, the compounds of formula (II) were present at 50 μg/ml.
An activity index ≥2 is indicative of substantial potentiation: […]

[2] = tested on: Weybridge strain of Eimeria tenella; assay: Anti-coccidial activity in vivo in chicks, caecal lesion score; conditions: compound 200 ppm in diet with DV 20 ppm and SQX 20 ppm, sixth day after infection, scale 0-3, dead = 4
Description: Compounds of formula (III) were tested for anti-coccidial activity in vivo in combination with diaveridine (DV) and sulphaquinoxaline (SQX), each at 20 ppm, according to the following procedure. Groups of five, one week old chicks were each injected orally with 6,000 sporulated o cysts of the Weybridge strain of Eimeria tenella. Drugs were administered in LD 5 chick mash deficient in Vitamin K, beginning on the day of infection and continuing for 7 days. On the sixth day after infection, caecal lesions of surviving chicks were scored on a scale of 0, 1, 2 or 3 and any dead chicks were scored as 4.

LD50 in mice = conditions: mouse, in vivo, ip
Description: By standard techniques the LD50 values of the following compounds of formula (I) were determined in mice.

COc1ccc(Cc2cnc(N)nc2N)cc1OC [diaveridine, reference compound]
minimal effective concentration [1]: 0.098 µg/mL

COC(=O)C1=NN(C)c2nc(N)[nH]c(=O)c2C(c2cccc(O)c2)=C1 [Example 3, 8-Amino-3-carbomethoxy-5-(3-hydroxyphenyl)-1-methyl-1H-pyrimido{4,5-c}-1,2-diazepin-6(7H)-one]
activity index, SMX (Staphylococcus aureus): 2.7
activity index, TMP (Staphylococcus aureus): 0.9

CCOC(=O)C1=NN(C)c2nc(N)[nH]c(=O)c2C(c2ccc(OC)cc2OC)=C1 [Example 7, 8-Amino-3-carbethoxy-1-methyl-5-(2,4-dimethoxyphenyl)1H-pyrimido{4,5-c}-1,2-diazepin-6(7H)-one]
Activity, Alone ([1]; concentration 1.56 μg/ml): 0 (95-100% parasite development)
Activity, Alone ([1]; concentration 6.25 μg/ml): 2 (51-75% parasite development)
Activity, Alone ([1]; concentration 25 μg/ml): 4 (1-25% parasite development)
Activity, Alone ([1]; concentration 100 μg/ml): 4 (1-25% parasite development)
Activity, With DV/SQX ([1]; concentration 1.56 μg/ml): 2 (51-75% parasite development)
Activity, With DV/SQX ([1]; concentration 6.25 μg/ml): 3 (26-50% parasite development)
Activity, With DV/SQX ([1]; concentration 25 μg/ml): 5
Activity, With DV/SQX ([1]; concentration 100 μg/ml): 5
Lesion score [2]: 1.2

COC(=O)C1=NN(C)c2nc(N)[nH]c(=O)c2C(c2cc(OC)c(OC)c(OC)c2)=C1 [drawing 31]
LD50 (LD50 in mice): > 500 mg/kg

CN1N=C(c2ccccc2)C=C(c2ccccc2)c2c1nc(N)[nH]c2=O [Example 1, 8-Amino-3,5-diphenyl-1-methyl-1H-pyrimido{4,5-c}-1,2-diazepin-6(7H)-one]
Activity, Alone ([1]; concentration 25 μg/ml): 4 (1-25% parasite development)
Activity, With DV/SQX ([1]; concentration 25 μg/ml): 4 (1-25% parasite development)

COC(=O)C1=NN(C)c2nc(N)[nH]c(=O)c2C(c2cc(OC)c(OC)c(OC)c2)=C1 [Example 6, 8-Amino-3-carbomethoxy-1-methyl-5-(3,4,5-trimethoxyphenyl)-1H-pyrimido{4,5-c}-1,2-diazepin-6(7H)-one]
Activity, Alone ([1]; concentration 1.56 μg/ml): 2 (51-75% parasite development)
Activity, Alone ([1]; concentration 6.25 μg/ml): 3 (26-50% parasite development)
Activity, Alone ([1]; concentration 25 μg/ml): 3 (26-50% parasite development)
Activity, Alone ([1]; concentration 100 μg/ml): 3 (26-50% parasite development)
Activity, With DV/SQX ([1]; concentration 1.56 μg/ml): 3 (26-50% parasite development)
Activity, With DV/SQX ([1]; concentration 6.25 μg/ml): 3 (26-50% parasite development)
Activity, With DV/SQX ([1]; concentration 25 μg/ml): 4 (1-25% parasite development)
Activity, With DV/SQX ([1]; concentration 100 μg/ml): 5
Lesion score [2]: 0.6

CCOC(=O)C1=NN(C)c2nc(N)[nH]c(=O)c2C(c2ccccc2)=C1 [Example 5, 8-Amino-3-carbethoxy-1-methyl-5-phenyl-1H-pyrimido-{4,5-c}-1,2-diazepin-6(7H)-one]
activity index, SMX (Staphylococcus aureus): > 2.8
activity index, TMP (Staphylococcus aureus): 2.0

Nc1ccc(S(=O)(=O)Nc2cnc3ccccc3n2)cc1 [sulphaquinoxaline, reference compound]
minimal effective concentration ([1]; in vitro, alone): 0.024 µg/mL

CC1=CC(C)=NN(C)c2nc(N)[nH]c(=O)c21 [Example 2, 8-Amino-1,3,5-trimethyl-1H-pyrimido{4,5-c}-1,2-diazepin-6(7H)-one]
LD50 (LD50 in mice): ~500 mg/kg
